Assay results as given in US20240207373A1, “CYCLIC PEPTIDES FROM THE C-TERMINUS OF ACETYLCHOLINESTERASE FOR TREATMENT OF SKIN DISORDERS AND FOR COSMETICAL USE” (priority 2020, published 2024).
Where a SMILES comes first, the peptide text is derived from it. Where no end group is shown, it is not given here.

Columns and labels:
HaCaT cell line = assay: Cell viability (cell toxicity) in HaCaT cell line; type: cell-based, human; conditions: FIG. 3A
Excerpt: The inventors next examined the ability of the acetylcholinesterase-derived peptides, T30 and T15, to induce proliferation of the HaCaT cell line and also tested cell viability to determine cell toxicity of NBP-14, T15 and T30 to the HaCaT cell line.

[1] = tested on: keratinocyte cell line HaCaTs; assay: Intracellular calcium influx in keratinocyte cell line HaCaTs; type: cell-based, human; conditions: in presence of T30, FIG. 2
Excerpt: As described in the examples, the inventors performed intracellular calcium imaging and cell proliferation assays on the keratinocyte cell line, HaCaTs, a widely used and characterized model for human keratinocytes.
The inventors examined the ability of the acetylcholinesterase-derived linear peptides, T30 and T15, and the cyclic peptide NBP-14, to induce intracellular calcium influx into the keratinocyte cell line, and the results are shown in FIG. 2.

## CSCC[C@@H]1NC(=O)[C@H](Cc2ccc(O)cc2)NC(=O)[C@H](CO)NC(=O)[C@H](CO)NC(=O)[C@H](Cc2c[nH]c3ccccc23)NC(=O)[C@H](CCCNC(=N)N)NC(=O)[C@H](Cc2c[nH]cn2)NC(=O)[C@H](Cc2ccccc2)NC(=O)[C@H](CCC(=O)O)NC(=O)[C@H](C)NC(=O)[C@H](CCCCN)NC(=O)[C@H](Cc2c[nH]c3ccccc23)NC(=O)[C@H](Cc2c[nH]cn2)NC(=O)[C@H](C(C)C)NC1=O [NBP-14] (cyclo(AEFHRWSSYMVHWK))
HaCaT cell line
  cell viability / cytotoxic effects: do not show induced significant cytotoxic effects
[1]
  inhibition of T30-induced intracellular calcium influx: significantly inhibit the effects of T30

## KAEFHRWSSYMVHWKNQFDHYSKQDRCSDL [T30]
HaCaT cell line
  cell viability / cytotoxic effects: do not show induced significant cytotoxic effects

## NQFDHYSKQDRCSDL [T15]
HaCaT cell line
  cell viability / cytotoxic effects: do not show induced significant cytotoxic effects
